# Measurements taken from ChEMBL document CHEMBL3272321, “Preliminary biological studies of certain amino acid analogues” (J Med Chem, 1976).
# Calls of active or inactive are those of the source. The rule behind the calls is not given here.
# Experiments:
# [1] = Retardation factor, Rf of the compound by paper chromatographic analysis; format: physicochemical
# Mus musculus [2] = species: Mus musculus; test: Toxicity in albino mouse assessed as tissue damage; format: organism-based; conditions: in vivo
# Mus musculus [3] = test: Toxicity in albino mouse at 400 mg/kg, ip qd for 7 days measured after 7 days; format: organism-based; design: dose 400 mg/kg, route intraperitoneal; conditions: in vivo, 168 h
# Escherichia coli [4] = test: Bacteriostatic activity against Escherichia coli 9723 after 8 hrs by spectrophotometric analysis; format: functional
# Escherichia coli [5] = test: Bacteriostatic activity against Escherichia coli 9723 at 5 to 15 X 10^-5 mole/10 ml after 5 to 25 hrs by spectrophotometric analysis; format: functional, organism-based
# Escherichia coli [6] = test: Bacteriostatic activity against Escherichia coli 9723 at 5 to 15 X 10^-5 mole/10 ml after 5 to 25 hrs by spectrophotometric analysis in presence of L-phenylalanine; format: functional, organism-based
# [7] = Drug excretion in albino mouse feces at 2 mg, sc after 24 hrs; format: ADME, organism-based; conditions: faeces, read-out: Drug excretion
# [8] = Drug excretion in albino mouse urine at 2 mg, sc after 24 hrs; format: ADME, organism-based; conditions: read-out: Drug excretion
# Escherichia coli [9] = test: Bacteriostatic activity against Escherichia coli 9723 after 19 hrs by spectrophotometric analysis; format: functional
# Escherichia coli [10] = test: Bacteriostatic activity against Escherichia coli 9723 at 5 to 15 X 10^-5 mole/10 ml after 5 to 25 hrs by spectrophotometric analysis in presence of D-methionine; format: functional, organism-based
# Escherichia coli [11] = test: Bacteriostatic activity against Escherichia coli 9723 at 5 to 15 X 10^-5 mole/10 ml after 5 to 25 hrs by spectrophotometric analysis in presence of L-methionine; format: functional, organism-based
Compound,Rf [1],Activity (Mus musculus [2]),Activity (Mus musculus [3]),GI90 (Escherichia coli [4]),Activity (Escherichia coli [5]),Activity (Escherichia coli [6]),dose excreted at 24 h [7],dose excreted at 24 h [8],GI90 (Escherichia coli [9]),Activity (Escherichia coli [10]),Activity (Escherichia coli [11])
CC(N)(C(=O)O)C1CC1 (stereo not given),0.56,Non-toxic,Non-toxic,,,,,,,,
CC[C@](N)(Cc1ccccc1)C(=O)O,0.77,Non-toxic,Non-toxic,0.0025 M,Active,inactive,2.1%,97.9%,0.005 M,,
C=CCCC(C)(N)C(=O)O (stereo not given),0.71,Non-toxic,Non-toxic,0.0013 M,Active,,2.2%,97.6%,0.01 M,inactive,inactive
NC(C(=O)O)(C1CC1)C1CC1,0.64,Non-toxic,Non-toxic,,,,,,,,
